Columns and labels:
[1] = biological target: T1, eNOS (Homo sapiens, UniProt P29474); assay: eNOS activity in intact HAECs (3H-Arg to 3H-citrulline conversion); format: cell-based
T1 construct: endogenous in cells; host or cells: HAECs (human aortic endothelial cells)
T1 sequence (P29474 2-1203 limits assumed): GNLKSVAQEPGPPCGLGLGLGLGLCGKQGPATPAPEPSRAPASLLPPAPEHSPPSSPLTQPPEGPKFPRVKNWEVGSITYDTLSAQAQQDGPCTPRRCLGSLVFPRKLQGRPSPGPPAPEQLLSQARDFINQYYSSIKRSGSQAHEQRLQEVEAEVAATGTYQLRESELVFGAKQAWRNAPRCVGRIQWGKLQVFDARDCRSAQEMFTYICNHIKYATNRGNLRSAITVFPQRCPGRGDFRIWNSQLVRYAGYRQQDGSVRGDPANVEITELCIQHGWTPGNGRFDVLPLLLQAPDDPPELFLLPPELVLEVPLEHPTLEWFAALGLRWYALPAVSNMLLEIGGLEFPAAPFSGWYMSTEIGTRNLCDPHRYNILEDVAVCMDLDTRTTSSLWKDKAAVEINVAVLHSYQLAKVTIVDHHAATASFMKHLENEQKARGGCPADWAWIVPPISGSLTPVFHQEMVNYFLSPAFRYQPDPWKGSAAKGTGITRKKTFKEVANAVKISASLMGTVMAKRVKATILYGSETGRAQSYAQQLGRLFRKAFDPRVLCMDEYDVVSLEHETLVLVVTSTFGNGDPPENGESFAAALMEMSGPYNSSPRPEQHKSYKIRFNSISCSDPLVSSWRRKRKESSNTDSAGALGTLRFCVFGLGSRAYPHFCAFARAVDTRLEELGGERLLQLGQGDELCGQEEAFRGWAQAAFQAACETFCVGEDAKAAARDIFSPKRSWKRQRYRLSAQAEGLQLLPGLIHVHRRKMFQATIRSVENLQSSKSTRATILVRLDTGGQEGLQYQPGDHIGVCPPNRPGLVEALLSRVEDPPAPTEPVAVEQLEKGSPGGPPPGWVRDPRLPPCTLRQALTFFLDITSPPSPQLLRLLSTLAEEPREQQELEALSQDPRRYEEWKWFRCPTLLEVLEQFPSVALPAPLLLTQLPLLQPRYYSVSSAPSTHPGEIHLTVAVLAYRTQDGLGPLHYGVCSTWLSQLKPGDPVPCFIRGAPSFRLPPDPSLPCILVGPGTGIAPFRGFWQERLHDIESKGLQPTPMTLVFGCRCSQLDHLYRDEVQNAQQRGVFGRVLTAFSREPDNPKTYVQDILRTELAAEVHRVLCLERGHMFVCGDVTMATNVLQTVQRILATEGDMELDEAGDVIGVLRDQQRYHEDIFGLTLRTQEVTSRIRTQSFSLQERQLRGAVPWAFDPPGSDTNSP
Procedure: (§1) (FIG. 6A). Images of NO. Nitric oxide (NO) production in HAECs was measured by staining intact HAECs with NO marker DAF-FM. N^G-nitro-L-arginine methyl ester (L-NAME, 100 μmol/L, Sigma #N5751) was added in the last hour as a negative control. (FIG. 6B). Quantification of NO. (FIG. 6C). eNOS activity. Human aortic endothelial cells (HAECs) were cultured in EC medium which contains 5 mmol/L D-Glucose (D-Glu), and treated with DL-homocysteine (DL-Hcy, 500 μmol/L) and/or (D-Glu, 25 mmol) without or with MDL28170 (MDL) for 48 hrs, CTsiRNA or μ-calpsiRNA for 72 hrs. L-NAME (100 μmol/L) was added in the last hour. NO was measured by staining intact HAECs with NO marker (DAF-FM, 10 μmol/L, Sigma #D2321, 30 mins.). Endothelial nitric oxide synthase (eNOS) activity was assessed by measuring of ^3H-L-arginine conversion to ^3H-citrulline in intact HAECs. n=3, *p<0.05 vs control; †p<0.05 vs DL-Hcy-treated HAECs; ‡p<0.05 vs D-Glu-treated HAECs; #p<0.05 vs DL-Hcy/D-Glu-treated HAECs. DAF-FM, 4-Amino-5-methylamino-2′,7′-difluorescein; CTsiRNA, control siRNA; HG, hyperglycemia; HHcy, hyperhomocysteinemia; μ-calpsiRNA, μ-calpain siRNA.
(§2) HAECs treated with or without DL-Hcy and/or D-Glu for 48 hrs were stained with 4-Amino-5-Methylamino-2′,7′-Difluorofluorescein (DAF-FM). To explore the role of calpain, especially μ-calpain, the DL-Hcy/D-Glu-treated HAECs were also treated with MDL28170 (MDL, 20 μmol/L) and μ-calpain siRNA, respectively. HAECs treated with L-NAME (100 μmol/L) for 1 hr before DAF-FM staining were used as negative controls. eNOS activity in HAECs was determined by measuring the conversion of ^3H-Arg to ^3H-citrulline in intact cells as previous described (Jiang et al., 2005, Arterioscl Throm Vas 25:2515-2521).

[2] = tested on: NO production in HAECs; assay: NO production in HAECs by DAF-FM staining; format: cell-based, human; conditions: for NO generation: HAECs, DL-Hcy 500 μmol/L and/or D-Glu 25 mmol/L for 48 hrs
Procedure: as §1, §2

[3] = HAECs, DL-Hcy 500 μmol/L and/or D-Glu 25 mmol/L for 48 hrs, relative to control

| Compound | eNOS activity [1, 3] | NO generation [2] | eNOS activity ([1]; HHcy/HG (DL-Hcy/D-Glu)-treated HAECs, improved from 35% (MDL) or printed 26% (siRNA), MDL 20 μmol/L 48 hrs, siRNA 72 hrs) | NO production ([2]; HHcy/HG (DL-Hcy/D-Glu)-treated HAECs, improved from 26%, MDL 20 μmol/L 48 hrs, siRNA 72 hrs) |
| --- | --- | --- | --- | --- |
| NC(CCS)C(=O)O (racemic) [DL-Hcy, DL-homocysteine] | 69% | 78 % of the control |  |  |
| O=C[C@H](O)[C@@H](O)[C@H](O)[C@H](O)CO [D-Glu, D-glucose] | 52% | 36 % of the control |  |  |
| MDL28170 |  |  | 74% | 86% |
